“And” between values parts separate entries of the source, which are not always exact repeats. Equal values may be shown once. Inconclusive results and toxic doses are left out.
Test system: L1210 leukemia ip in BDF1 mice, survival T/C
Assay: NCI In Vivo Anticancer Drug Screen. Data for tumor model L1210 Leukemia (intraperitoneal) in B6D2F1 (BDF1) mice
Conditions: endpoint: mean survival time, higher = longer survival
Procedure, shortened: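 Transplanted-tumor mice were given test agent; controls received vehicle only. Survival readings from the two groups were divided (treated over control).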

[1] = dose: 100.0 mg/kg/injection, schedule: Q01DX009 (ip), vehicle: Klucel (hydroxypropylcellulose) (HPC)
[2] = dose: 100.0 mg/kg/injection, schedule: Q04DX003 (ip), vehicle: Klucel (hydroxypropylcellulose) (HPC)
[3] = dose: 200.0 mg/kg/injection, schedule: Q01DX009 (ip), vehicle: Klucel (hydroxypropylcellulose) (HPC)
[4] = dose: 200.0 mg/kg/injection, schedule: Q04DX003 (ip), vehicle: Klucel (hydroxypropylcellulose) (HPC)
[5] = dose: 400.0 mg/kg/injection, schedule: Q04DX003 (ip), vehicle: Klucel (hydroxypropylcellulose) (HPC)

O=C(Nc1cccc(NC(=O)Nc2cccc(C3=NCCN3)c2)c1)Nc1cccc(C2=NCCN2)c1
T/C (dose: 16.4 mg/kg/injection, schedule: Q01DX Z (ip), vehicle: carboxymethylcellulose (CMC)): 121 % of control | T/C (dose: 27.0 mg/kg/injection, schedule: Q01DX Z (ip), vehicle: carboxymethylcellulose (CMC)): 156 % of control | T/C (dose: 37.0 mg/kg/injection, schedule: Q01DX Z (ip), vehicle: carboxymethylcellulose (CMC)): 121 % of control | T/C (dose: 55.5 mg/kg/injection, schedule: Q01DX Z (ip), vehicle: carboxymethylcellulose (CMC)): 123 % of control | T/C (dose: 66.0 mg/kg/injection, schedule: Q01DX Z (ip), vehicle: carboxymethylcellulose (CMC)): 107 % of control | T/C (dose: 83.3 mg/kg/injection, schedule: Q01DX Z (ip), vehicle: carboxymethylcellulose (CMC)): 121 % of control | T/C (dose: 90.0 mg/kg/injection, schedule: Q01DX Z (ip), vehicle: saline): 107 % of control | T/C (dose: 125.0 mg/kg/injection, schedule: Q01DX Z (ip), vehicle: carboxymethylcellulose (CMC)): 101 % of control | T/C (dose: 187.5 mg/kg/injection, schedule: Q01DX Z (ip), vehicle: carboxymethylcellulose (CMC)): 104 % of control

CCCCOC(=O)NCCSC(=O)OCCCC
T/C (dose: 100.0 mg/kg/injection, schedule: Q04DX003 (ip), vehicle: saline with Tween-80): 101 % of control | T/C (dose: 200.0 mg/kg/injection, schedule: Q04DX003 (ip), vehicle: saline with Tween-80): 93 % of control | T/C (dose: 400.0 mg/kg/injection, schedule: Q04DX003 (ip), vehicle: saline with Tween-80): 95 % of control

CCCCCCSc1nccnc1C
T/C (dose: 25.0 mg/kg/injection, schedule: Q01DX009 (ip), vehicle: Klucel (hydroxypropylcellulose) (HPC)): 100 % of control | T/C (dose: 50.0 mg/kg/injection, schedule: Q01DX001 (ip), vehicle: Klucel (hydroxypropylcellulose) (HPC)): 92 % of control | T/C (dose: 50.0 mg/kg/injection, schedule: Q01DX009 (ip), vehicle: Klucel (hydroxypropylcellulose) (HPC)): 92 % of control and 96 % of control | T/C (dose: 50.0 mg/kg/injection, schedule: Q04DX002 (ip), vehicle: Klucel (hydroxypropylcellulose) (HPC)): 92 % of control | T/C (dose: 50.0 mg/kg/injection, schedule: Q04DX003 (ip), vehicle: Klucel (hydroxypropylcellulose) (HPC)): 93 % of control | T/C (dose: 100.0 mg/kg/injection, schedule: Q01DX001 (ip), vehicle: Klucel (hydroxypropylcellulose) (HPC)): 95 % of control | T/C [1]: 123 % of control and 91 % of control | T/C (dose: 100.0 mg/kg/injection, schedule: Q04DX002 (ip), vehicle: Klucel (hydroxypropylcellulose) (HPC)): 102 % of control | T/C [2]: 95 % of control | T/C (dose: 200.0 mg/kg/injection, schedule: Q01DX001 (ip), vehicle: Klucel (hydroxypropylcellulose) (HPC)): 98 % of control | T/C [3]: 100 % of control | T/C (dose: 200.0 mg/kg/injection, schedule: Q04DX002 (ip), vehicle: Klucel (hydroxypropylcellulose) (HPC)): 87 % of control | T/C [4]: 92 % of control | T/C (dose: 400.0 mg/kg/injection, schedule: Q01DX001 (ip), vehicle: Klucel (hydroxypropylcellulose) (HPC)): 98 % of control | T/C (dose: 400.0 mg/kg/injection, schedule: Q04DX002 (ip), vehicle: Klucel (hydroxypropylcellulose) (HPC)): 94 % of control | T/C [5]: 87 % of control

c1ccc(-c2cccc(-c3ccccc3)c2)cc1
T/C [2]: 93 % of control | T/C [4]: 108 % of control | T/C [5]: 90 % of control

O=[N+]([O-])c1ccccc1S(=O)(=O)C1CC1c1ccccc1 (stereo not given)
T/C (dose: 100.0 mg/kg/injection, schedule: Q01DX001 (ip), vehicle: saline): 109 % of control | T/C (dose: 200.0 mg/kg/injection, schedule: Q01DX001 (ip), vehicle: saline): 102 % of control | T/C (dose: 400.0 mg/kg/injection, schedule: Q01DX001 (ip), vehicle: saline): 103 % of control

O=C(NCCCCNC(=O)Nc1cccc(C2=NCCN2)c1)Nc1cccc(C2=NCCN2)c1
T/C (dose: 12.0 mg/kg/injection, schedule: Q01DX Z (ip), vehicle: carboxymethylcellulose (CMC)): 114 % of control | T/C (dose: 23.0 mg/kg/injection, schedule: Q01DX Z (ip), vehicle: carboxymethylcellulose (CMC)): 100 % of control | T/C (dose: 46.0 mg/kg/injection, schedule: Q01DX Z (ip), vehicle: carboxymethylcellulose (CMC)): 108 % of control

Nc1ccccc1C(=O)N/N=C/c1ccccc1Cl
T/C [1]: 102 % of control | T/C [3]: 97 % of control | T/C (dose: 400.0 mg/kg/injection, schedule: Q01DX009 (ip), vehicle: Klucel (hydroxypropylcellulose) (HPC)): 86 % of control

— PubChem BioAssay AID248 (DTP/NCI, 2004)
